Experimental data published in patent publication US20140056898A1, “COMBINATION THERAPIES COMPRISING ANTI-ERBB3 AGENTS” (priority 2011, published 2014).
Entries after “also recorded” stand apart in the source; their conditions may differ. Blank lines part the entries; values can stand above or below the molecule they belong to.

Tests used:
BT474-M3 cells [1] = experiment: Spheroid in vitro tumor model assay, heregulin-stimulated; format: cell-based; conditions: heregulin-stimulated BT474-M3 spheroids, dose range
Method: (§3) BT474-M3 wild type cells (2000 cells/well) are plated in Ultra Low Cluster 96-well plate (Costar). After overnight incubation, indicated treatments are introduced to the plate. Cells are continued to culture for six days. Spheroids are then examined by Nikon microscope and analyzed by MetaMorph Image Analysis Software (Molecular Devices). The spheroid size from cells cultured in medium containing 10% FBS is set as control.
(§4) The percent of spheroid growth inhibition (normalized to untreated, stimulated control) was determined for 1 μM doses of inhibitor treatment.

BT474-M3 cells [2] = experiment: Spheroid in vitro tumor model assay, estrogen-stimulated; format: cell-based; conditions: estrogen-stimulated BT474-M3 spheroids, dose range, six days
From the text: Cells are continued to culture for six days.
Multicellular spheroids are used to simulate the growth and microenvironmental conditions of tumors in vitro.

BT474-M3 cells [3] = experiment: Spheroid in vitro tumor model assay, dual ligand (estrogen and heregulin)-stimulated; format: cell-based; conditions: estrogen and heregulin (dual ligand)-stimulated BT474-M3 spheroids, dose range
Method: as §3, §4

BT474-M3-Aro cells = experiment: Aromatase-overexpressing BT474-M3 cell proliferation assay (WST-1); format: cell-based; conditions: androstenedione (200 nM) and heregulin (2 nM), three days; ratio 10:20:1 MM-111 to letrozole to lapatinib
Method: BT474-M3 cells were transfected with PS100010 vector containing human aromatase (gene accession No: NM_000103.2). Cells with stable expression of aromatase (BT474-M3-Aro) were obtained after selection with 400 μg/ml geneticin. For cell proliferation assay, BT474-M3-Aro cells (5000 cells/well) were plated in phenol red-free RPMI-1640 medium containing 5% charcoal-stripped FBS into 96-well plate. After overnight incubation, indicated treatments were introduced in the presence of androstenedione (A-4; 200 nM) and heregulin (HRG; 2 nM). […] Cell viability in the presence of 5% charcoal-stripped FBS was set as control (100%).
Androstenedione is a steroid hormone that is converted to estrogen by aromatase.

BT474-M3 cells [4] = experiment: Cell proliferation assay (CellTiter-Glo); format: cell-based; conditions: 24 hours
Method: Cells (8,000/well) are seeded into 96-well plates and incubated overnight. Inhibitor is added at doses indicated and cells are treated for 24 hours. For experiments with ligand stimulation, cells are serum-starved overnight prior to addition of inhibitor and 2 nM heregulin 1-[…] (R&D Systems, Minneapolis, Minn.) is added 1 hour post-inhibitor treatment in media containing 5% FBS. Numbers of viable cells are measured as an indicator of cell proliferation using the CellTiter-Glo® Luminescent Cell Viability Assay (Promega, Madison, Wis.).

[5] = tested on: BT474-M3 breast cancer xenograft; experiment: BT474-M3 breast cancer xenograft efficacy study, MM-111 and lapatinib; format: in vivo, mice; conditions: from day 40 to day 7; MM-111 weekly, lapatinib daily at optimal efficacious dose
Method: Tumor xenografts are established by subcutaneous injection of BT474-M3 cells into the flank of 5-6 weeks old female athymic nude mice (nu/nu; Charles River Labs, Wilmington, Mass.). Mice receive a subcutaneous 60 day, slow-release estrogen implant in the opposite flank (0.72 mg pellet; Innovation Research of America, Sarasota, Fla.) 24 hours prior to the injection of cells.
The percent change in tumor volume from day 40 to day 7 (inoculation) was calculated for each group (FIG. 6b).

BT474-M3 cells [6] = experiment: Apoptosis assay (Annexin V / PI, FACS) in spheroids; format: cell-based; conditions: MM-111 100 nM, lapatinib 33 nM; for Percent cell population: Early apoptosis: Annexin V positive, PI negative; for Percent cell population: Dead cells: PI positive, Annexin V negative
Method: After overnight incubation, spheroids are treated with inhibitor at concentrations indicated for 72 hours. Spheroids are then trypsinized and combined with floating cells. Cells are washed twice with cold PBS and suspended in binding buffer (0.01 M HEPES, pH 7.4; 0.14 M NaCl; 2.5 mM CaCl2). Cells are then stained with FITC-conjugated Annexin V and PI. Apoptotic cells are quantified on a FACSCalibur™ FACS machine.
Cells were then stained with Annexin V and propidium iodide (PI) and quantitated using FACS (FIG. 11, Table 2). Cell populations staining positive with Annexin V and PI were quantified as late apoptotic, cell populations staining positive with Annexin V but not PI were quantified as early apoptotic, cell populations staining positive for PI but not Annexin V were quantified as dead cells and populations of cells not stained with either Annexin V or PI were considered alive and not apoptotic (Table 2).

[7] = tested on: ErbB3 phosphorylation (pErbB3); experiment: Cell signaling assay, pErbB3 ELISA in heregulin-stimulated BT474-M3 cells; format: cell-based
Method: (§1) Cell lysates are probed for phospho-ErbB3 (pErbB3), and phospho-AKT (pAKT) by ELISA as described previously (Schoeberl et al, 2009). Inhibitor IC50 values are calculated by fitting dose-response data to a 4-parameter sigmoidal curve (GraphPad Prism®, GraphPad Software, Inc., La Jolla, Calif.).
The amount of pErbB3 was measured by ELISA using the methods described above or minor variations thereof. Model-generated dose-response curves overlay the experimental data (FIG. 7a). […] Untreated and heregulin-stimulated cells were probed for pErbB3 and pAKT and the IC50 was calculated (FIG. 7b).
(§2) CRL-1504™), cells were incubated with serial dilutions of either inhibitor for 15 minutes, 1 hour, 4 hours, and 24 hours followed by stimulation with 5 nM heregulin for 10 min. Amounts of pAKT and pErbB3 were measured by ELISA essentially as described.

ErbB2 and ErbB3 = experiment: Affinity of MM-111 antigen-binding sites
[8] = tested on: AKT phosphorylation (pAKT); experiment: Cell signaling assay, pAKT ELISA in heregulin-stimulated ZR75-30 cells; format: cell-based; conditions: 5 nM heregulin for 10 min, read-out: IC50, reduction of pAKT levels
Method: as §1, §2

[9] = tested on: AKT phosphorylation (pAKT); experiment: Cell signaling assay, pAKT ELISA in heregulin-stimulated BT474-M3 cells; format: cell-based; conditions: 5 nM heregulin for 10 min, read-out: IC50, reduction of pAKT levels
Method: as §1, §2

[10] = tested on: ErbB3 phosphorylation (pErbB3); experiment: Cell signaling assay, pErbB3 ELISA in heregulin-stimulated ZR75-30 cells; format: cell-based; conditions: 5 nM heregulin for 10 min, read-out: IC50, reduction of pErbB3 levels
Method: as §1, §2

Molecule: C[C@]12CC[C@@H]3c4ccc(O)cc4C[C@@H](CCCCCCCCC[S+]([O-])CCCC(F)(F)C(F)(F)F)[C@H]3[C@@H]1CC[C@@H]2O (some centres unmarked) [fulvestrant]
- inhibition of spheroid growth (in words) (BT474-M3 cells [1]): did not inhibit heregulin stimulated spheroid growth
- inhibition of spheroid growth (in words) (BT474-M3 cells [2]): showed inhibitory effects on spheroid growth
- inhibition of spheroid growth (in words) (BT474-M3 cells [3]): inhibited spheroid growth

Molecule: CS(=O)(=O)CCNCc1ccc(-c2ccc3ncnc(Nc4ccc(OCc5cccc(F)c5)c(Cl)c4)c3c2)o1 [lapatinib, reference compound]
- inhibition of cell growth (in words) (BT474-M3-Aro cells): did not result in growth inhibition except at high concentrations
- inhibition of cell proliferation (viable cells) (BT474-M3 cells [4]; BT474-M3 cells in serum plus 2 nM heregulin): about 23%
- inhibition of cell proliferation (viable cells) (BT474-M3 cells [4]; unstimulated BT474-M3 cells in serum): ~50%
- percent change in tumor volume [5]: −11%
- Percent cell population: Live cells (BT474-M3 cells [6]; 72 hours): 67.9%
- Percent cell population: Early apoptosis (BT474-M3 cells [6]; 72 hours): 16.8%
- Percent cell population: Dead cells (BT474-M3 cells [6]; 72 hours): 0.73%
- total apoptotic cells (BT474-M3 cells [6]): about 31%
- inhibition of heregulin-activated signaling (pErbB3, pAKT; in words) ([7]; BT474-M3 cells, 5 nM heregulin 10 min versus unstimulated, 1-hour incubation): not an effective inhibitor of heregulin-activated signaling

Molecule: N#Cc1ccc(C(c2ccc(C#N)cc2)n2cncn2)cc1 [letrozole]
- inhibition of cell growth (in words) (BT474-M3-Aro cells): did not result in significant inhibition of spheroid cell growth

- affinity of ErbB2 antigen-binding site relative to ErbB3 antigen-binding site (ErbB2 and ErbB3): about 30 times
- IC50 [8]: 4 nM
- IC50 ([7]; BT474-M3 cells, 5 nM heregulin for 10 min, read-out: IC50, reduction of pErbB3 levels): 3 nM
- IC50 [9]: 10 nM
- IC50 [10]: 5 nM
Molecule: MM-111: bispecific anti-ErbB2/anti-ErbB3 antibody, scFv HSA conjugate, amino acid sequence SEQ ID NO:1
- inhibition of cell growth (in words) (BT474-M3-Aro cells): inhibited cell proliferation to a similar extent
- percent change in tumor volume [5]: 14%
- inhibition of spheroid growth (in words) (BT474-M3 cells [1]): inhibited heregulin-induced spheroid growth
- inhibition of spheroid growth (in words) (BT474-M3 cells [2]): showed inhibitory effects on spheroid growth
- Percent cell population: Live cells (BT474-M3 cells [6]; 72 hours): 78.9%
- Percent cell population: Late apoptosis (BT474-M3 cells [6]; 72 hours, Annexin V and PI positive): 7.5%
- Percent cell population: Early apoptosis (BT474-M3 cells [6]; 72 hours): 12.9%
- Percent cell population: Dead cells (BT474-M3 cells [6]; 72 hours): 0.74%
- total apoptotic cells (BT474-M3 cells [6]): about 20%
- inhibition of spheroid growth (in words) (BT474-M3 cells [3]): inhibited spheroid growth; also recorded: greater inhibitory effects than trastuzumab
- ability to inhibit heregulin-induced ErbB3 activation relative to lapatinib ([7]; incubation 15 minutes up to 24 hours): superior to lapatinib by greater than an order of magnitude
